Assay results: patent US11745181B2, “Devices and methods for bioassay” (Unchained Labs, priority 2017, dated 2023)

How the values were obtained:
[1] = system: zebrafish embryos Tg(fli1:EGFP); assay: Heart rate measurement of zebrafish embryos/larvae in the μZMount fluidic device; type: in vivo; conditions: 0.1 μM, 1 μM, or 5 μM for 48 or 96 hours; compared with published literature
Description: Each different drug treatment was replenished every 24 hours, effectively dosing the zebrafish at 24, 48, 72, and 96 hours post initial drug treatment. The drug was added in a manner similar to replenishing the media. At 4 dpf, each larvae was moved into its respective second bioassay region by adding 10 μl of media to the sample chamber and aspirated out quickly from the first outlet. The yolk of the zebrafish at this age has depleted enough to allow the fish to flow into the second bioassay region.
Heart rate was measured for no less than five embryos per treatment at 48 hours post fertilization (hpf) and 96 hpf. Of the heart rates measured, three of them were recorded using video image capturing techniques for future evaluation. The heart rates were measured by visually inspecting the heart beat and counting the number of beats in 15 seconds and then multiplying by 4.

[2] = system: zebrafish larvae Tg(fli1:EGFP); assay: High-resolution fluorescence-microscopy imaging of vessel sprouting and morphology in zebrafish larvae; type: in vivo; conditions: 0.1 μM, 1 μM, or 5 μM, replenished every 24 hours
Source text: In this example, green fluorescent zebrafish embryos were loaded into the fluidic chambers of μZMount, a non-limiting exemplary fluidic device with the structure provided in FIGS. 1-2 herein and dimensions that were within 5% of the target dimensions as provided herein with reference to the illustrative embodiment provided in FIGS. 1-2, and that includes a plurality of fluidic chambers having the features and within 5% of the target dimensions provided herein for the illustrative embodiment of FIGS. 2A-2B. […] These zebrafish were Tg(fli1:EGFP) and expressed enhanced GFP under the control of the fli1 promoter such that the entire vasculature fluoresces. The zebrafish embryos and larvae that developed therefrom, were visualized with high-resolution fluorescent microscopy.
Each different drug treatment was replenished every 24 hours, effectively dosing the zebrafish at 24, 48, 72, and 96 hours post initial drug treatment. The drug was added in a manner similar to replenishing the media. […]
Embryos were imaged at various time points while within the fluidic device, up to 5 dpf, using high-resolution fluorescence-microscopy. […]
Drug-mediated inhibition of intersegmental and subintestinal vessels sprouting was recorded using high-resolution fluorescence-microscopy.

Cc1cc(C)c(/C=C2\C(=O)Nc3ccccc32)[nH]1 [SU-5416]
heart rates [1]: within the normal range | dorsalization [2]: concentration dependent dorsalization | inhibition of intersegmental and subintestinal vessels sprouting (angiogenic development) ([2]; fluorescence microscopy): suppression of angiogenic development similar to published work
